From the supplement of paper PMC10307832

Columns and labels:
Assay in all cases: relative viability (nuclei count vs DMSO), 5 days (fraction); higher = more cells survive
[1] = test system: A-427
Procedure, shortened: (§1)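 Cells from lung cancer lines were seeded into 1536-well plates and, one day later, dosed by pin tool. Treatments were either a single drug or a fixed dose of an anchor drug with five library-drug doses (not always all listed) in √10 steps. After 5 days, nuclei were stained in a one-step fixation (final 0.05% Triton X-100, 1% formaldehyde, 1 ug/ml Hoechst) and counted on 4× images, and relative viability is the treated-to-vehicle nuclei ratio, as the median of duplicate plates.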

[2] = test system: BEN
Procedure, shortened: as §1

[3] = test system: H3255
Procedure, shortened: as §1

[4] = test system: HCC-15
Procedure, shortened: as §1

[5] = test system: LC-2-ad
Procedure, shortened: as §1

[6] = test system: LCLC-97TM1
Procedure, shortened: as §1

[7] = test system: NCI-H1395
Procedure, shortened: as §1

[8] = test system: NCI-H1650
Procedure, shortened: as §1

[9] = test system: NCI-H1651
Procedure, shortened: as §1

[10] = test system: NCI-H1755
Procedure, shortened: as §1

[11] = test system: NCI-H1993
Procedure, shortened: as §1

[12] = test system: NCI-H2009
Procedure, shortened: as §1

[13] = test system: NCI-H2085
Procedure, shortened: as §1

[14] = test system: NCI-H23
Procedure, shortened: as §1

[15] = test system: NCI-H520
Procedure, shortened: as §1

[16] = test system: NCI-H647
Procedure, shortened: as §1

[17] = test system: NCI-H650
Procedure, shortened: as §1

[18] = test system: NCI-H661
Procedure, shortened: as §1

[19] = test system: NCI-H727
Procedure, shortened: as §1

[20] = test system: NCI-H838
Procedure, shortened: as §1

[21] = test system: PC-3 [JPC-3]
Procedure, shortened: as §1

[22] = test system: RERF-LC-KJ
Procedure, shortened: as §1

[23] = test system: SK-LU-1
Procedure, shortened: as §1

[24] = test system: SK-MES-1
Procedure, shortened: as §1

[25] = test system: NCI-H1792
Procedure, shortened: as §1

SMILES: Nc1cccc2c1CN(C1CCC(=O)NC1=O)C2=O (stereo not drawn) [Lenalidomide] + O=C(CCCCCCC(=O)Nc1ccccc1)NO [Vorinostat] (partner 1 µM)
- relative viability ([1]; first compound 0.253 µM): 0.871
- relative viability ([1]; first compound 0.8 µM): 0.898
- relative viability ([1]; first compound 2.53 µM): 0.878
- relative viability ([1]; first compound 8 µM): 0.873
- relative viability ([2]; first compound 0.253 µM): 0.559
- relative viability ([2]; first compound 0.8 µM): 0.5
- relative viability ([2]; first compound 2.53 µM): 0.617
- relative viability ([2]; first compound 8 µM): 0.545
- relative viability ([3]; first compound 0.253 µM): 0.716
- relative viability ([3]; first compound 0.8 µM): 0.515
- relative viability ([3]; first compound 2.53 µM): 0.823
- relative viability ([3]; first compound 8 µM): 0.862
- relative viability ([4]; first compound 0.253 µM): 0.826
- relative viability ([4]; first compound 0.8 µM): 0.855
- relative viability ([4]; first compound 2.53 µM): 0.917
- relative viability ([4]; first compound 8 µM): 0.795
- relative viability ([5]; first compound 0.253 µM): 0.733
- relative viability ([5]; first compound 0.8 µM): 0.643
- relative viability ([5]; first compound 2.53 µM): 0.718
- relative viability ([5]; first compound 8 µM): 0.735
- relative viability ([6]; first compound 0.253 µM): 0.586
- relative viability ([6]; first compound 0.8 µM): 0.581
- relative viability ([6]; first compound 2.53 µM): 0.901
- relative viability ([6]; first compound 8 µM): 0.507
- relative viability ([7]; first compound 0.253 µM): 0.807
- relative viability ([7]; first compound 2.53 µM): 0.736
- relative viability ([7]; first compound 8 µM): 0.567
- relative viability ([8]; first compound 0.253 µM): 0.545
- relative viability ([8]; first compound 0.8 µM): 0.527
- relative viability ([8]; first compound 2.53 µM): 0.543
- relative viability ([8]; first compound 8 µM): 0.664
- relative viability ([9]; first compound 0.253 µM): 0.624
- relative viability ([9]; first compound 0.8 µM): 0.471
- relative viability ([9]; first compound 2.53 µM): 0.589
- relative viability ([9]; first compound 8 µM): 0.579
- relative viability ([10]; first compound 0.253 µM): 0.78
- relative viability ([10]; first compound 0.8 µM): 0.649
- relative viability ([10]; first compound 2.53 µM): 0.728
- relative viability ([10]; first compound 8 µM): 0.593
- relative viability ([11]; first compound 0.253 µM): 0.872
- relative viability ([11]; first compound 0.8 µM): 0.615
- relative viability ([11]; first compound 2.53 µM): 0.962
- relative viability ([11]; first compound 8 µM): 0.383
- relative viability ([12]; first compound 0.253 µM): 0.686
- relative viability ([12]; first compound 0.8 µM): 0.72
- relative viability ([12]; first compound 2.53 µM): 0.852
- relative viability ([12]; first compound 8 µM): 0.769
- relative viability ([13]; first compound 0.253 µM): 0.826
- relative viability ([13]; first compound 0.8 µM): 0.691
- relative viability ([13]; first compound 2.53 µM): 0.799
- relative viability ([13]; first compound 8 µM): 0.624
- relative viability ([14]; first compound 0.253 µM): 0.511
- relative viability ([14]; first compound 2.53 µM): 0.747
- relative viability ([14]; first compound 8 µM): 0.407
- relative viability ([15]; first compound 0.253 µM): 0.738
- relative viability ([15]; first compound 0.8 µM): 0.74
- relative viability ([15]; first compound 2.53 µM): 0.731
- relative viability ([15]; first compound 8 µM): 0.698
- relative viability ([16]; first compound 0.253 µM): 0.415
- relative viability ([16]; first compound 0.8 µM): 0.68
- relative viability ([16]; first compound 2.53 µM): 0.525
- relative viability ([16]; first compound 8 µM): 0.653
- relative viability ([17]; first compound 0.253 µM): 0.492
- relative viability ([17]; first compound 0.8 µM): 0.446
- relative viability ([17]; first compound 2.53 µM): 0.59
- relative viability ([17]; first compound 8 µM): 0.322
- relative viability ([18]; first compound 0.253 µM): 0.737
- relative viability ([18]; first compound 0.8 µM): 0.828
- relative viability ([18]; first compound 2.53 µM): 0.893
- relative viability ([18]; first compound 8 µM): 0.848
- relative viability ([19]; first compound 0.253 µM): 1.26
- relative viability ([19]; first compound 0.8 µM): 1.04
- relative viability ([19]; first compound 2.53 µM): 1.32
- relative viability ([19]; first compound 8 µM): 1.22
- relative viability ([20]; first compound 0.253 µM): 0.732
- relative viability ([20]; first compound 0.8 µM): 0.692
- relative viability ([20]; first compound 2.53 µM): 0.712
- relative viability ([20]; first compound 8 µM): 0.697
- relative viability ([21]; first compound 0.253 µM): 1.02
- relative viability ([21]; first compound 0.8 µM): 0.721
- relative viability ([21]; first compound 2.53 µM): 0.903
- relative viability ([21]; first compound 8 µM): 0.72
- relative viability ([22]; first compound 0.253 µM): 0.574
- relative viability ([22]; first compound 0.8 µM): 0.605
- relative viability ([22]; first compound 2.53 µM): 0.71
- relative viability ([22]; first compound 8 µM): 0.686
- relative viability ([23]; first compound 0.253 µM): 0.763
- relative viability ([23]; first compound 0.8 µM): 0.877
- relative viability ([23]; first compound 2.53 µM): 0.909
- relative viability ([23]; first compound 8 µM): 0.759
- relative viability ([24]; first compound 0.253 µM): 0.99
- relative viability ([24]; first compound 0.8 µM): 0.881
- relative viability ([24]; first compound 2.53 µM): 1.19
- relative viability ([24]; first compound 8 µM): 1.06

SMILES: Nc1cccc2c1CN(C1CCC(=O)NC1=O)C2=O (stereo not drawn) [Lenalidomide] + NC(=O)Nc1cc(-c2cccc(F)c2)sc1C(=O)N[C@H]1CCCNC1 [AZD7762] (partner 0.2 µM)
- relative viability ([1]; first compound 0.253 µM): 0.793
- relative viability ([1]; first compound 0.8 µM): 0.878
- relative viability ([1]; first compound 2.53 µM): 0.889
- relative viability ([1]; first compound 8 µM): 0.887
- relative viability ([2]; first compound 0.253 µM): 0.783
- relative viability ([2]; first compound 0.8 µM): 0.503
- relative viability ([2]; first compound 2.53 µM): 0.701
- relative viability ([2]; first compound 8 µM): 0.563
- relative viability ([3]; first compound 0.253 µM): 0.936
- relative viability ([3]; first compound 0.8 µM): 0.747
- relative viability ([3]; first compound 2.53 µM): 0.93
- relative viability ([3]; first compound 8 µM): 0.823
- relative viability ([4]; first compound 0.253 µM): 1.11
- relative viability ([4]; first compound 0.8 µM): 1.22
- relative viability ([4]; first compound 2.53 µM): 1.35
- relative viability ([4]; first compound 8 µM): 1.36
- relative viability ([5]; first compound 0.253 µM): 0.902
- relative viability ([5]; first compound 0.8 µM): 0.928
- relative viability ([5]; first compound 2.53 µM): 0.865
- relative viability ([5]; first compound 8 µM): 0.94
- relative viability ([6]; first compound 0.253 µM): 0.304
- relative viability ([6]; first compound 0.8 µM): 0.114
- relative viability ([6]; first compound 2.53 µM): 0.364
- relative viability ([6]; first compound 8 µM): 0.222
- relative viability ([7]; first compound 0.253 µM): 0.405
- relative viability ([7]; first compound 2.53 µM): 0.387
- relative viability ([7]; first compound 8 µM): 0.376
- relative viability ([9]; first compound 0.253 µM): 0.506
- relative viability ([9]; first compound 0.8 µM): 0.436
- relative viability ([9]; first compound 2.53 µM): 0.568
- relative viability ([9]; first compound 8 µM): 0.44
- relative viability ([10]; first compound 0.253 µM): 0.458
- relative viability ([10]; first compound 0.8 µM): 0.498
- relative viability ([10]; first compound 2.53 µM): 0.452
- relative viability ([10]; first compound 8 µM): 0.454
- relative viability ([25]; first compound 0.253 µM): 0.894
- relative viability ([25]; first compound 0.8 µM): 0.571
- relative viability ([25]; first compound 2.53 µM): 0.971
- relative viability ([25]; first compound 8 µM): 0.479
- relative viability ([11]; first compound 0.253 µM): 0.587
- relative viability ([11]; first compound 0.8 µM): 0.646
- relative viability ([11]; first compound 2.53 µM): 0.702
- relative viability ([11]; first compound 8 µM): 0.539
- relative viability ([13]; first compound 0.253 µM): 0.991
- relative viability ([13]; first compound 0.8 µM): 1.02
- relative viability ([13]; first compound 2.53 µM): 0.982
- relative viability ([13]; first compound 8 µM): 0.919
- relative viability ([14]; first compound 0.253 µM): 0.253
- relative viability ([14]; first compound 2.53 µM): 0.22
- relative viability ([14]; first compound 8 µM): 0.229
- relative viability ([16]; first compound 0.253 µM): 0.485
- relative viability ([16]; first compound 0.8 µM): 0.401
- relative viability ([16]; first compound 2.53 µM): 0.499
- relative viability ([16]; first compound 8 µM): 0.498
- relative viability ([17]; first compound 0.253 µM): 1.06
- relative viability ([17]; first compound 0.8 µM): 0.927
- relative viability ([17]; first compound 2.53 µM): 1.06
- relative viability ([17]; first compound 8 µM): 0.89
- relative viability ([19]; first compound 0.253 µM): 0.655
- relative viability ([19]; first compound 0.8 µM): 0.574
- relative viability ([19]; first compound 2.53 µM): 0.555
- relative viability ([19]; first compound 8 µM): 0.709
- relative viability ([20]; first compound 0.253 µM): 0.938
- relative viability ([20]; first compound 0.8 µM): 0.871
- relative viability ([20]; first compound 2.53 µM): 0.962
- relative viability ([20]; first compound 8 µM): 1.03
- relative viability ([21]; first compound 0.253 µM): 0.888
- relative viability ([21]; first compound 0.8 µM): 0.467
- relative viability ([21]; first compound 2.53 µM): 0.944
- relative viability ([21]; first compound 8 µM): 0.667
- relative viability ([22]; first compound 0.253 µM): 1.01
- relative viability ([22]; first compound 0.8 µM): 0.319
- relative viability ([22]; first compound 2.53 µM): 1.18
- relative viability ([22]; first compound 8 µM): 0.82
